Assay results: patent publication US9957270B2, “Fused pyrimidine-based hydroxamate derivatives” (Agency for Science, Technology and Research, priority 2014, dated 2018)

Tests used:
[1] = biological target: T1, HDAC6 (Homo sapiens, UniProt Q9UBN7); test: HDAC enzyme assay, recombinant HDAC6
T1 sequence (Q9UBN7 1-1215): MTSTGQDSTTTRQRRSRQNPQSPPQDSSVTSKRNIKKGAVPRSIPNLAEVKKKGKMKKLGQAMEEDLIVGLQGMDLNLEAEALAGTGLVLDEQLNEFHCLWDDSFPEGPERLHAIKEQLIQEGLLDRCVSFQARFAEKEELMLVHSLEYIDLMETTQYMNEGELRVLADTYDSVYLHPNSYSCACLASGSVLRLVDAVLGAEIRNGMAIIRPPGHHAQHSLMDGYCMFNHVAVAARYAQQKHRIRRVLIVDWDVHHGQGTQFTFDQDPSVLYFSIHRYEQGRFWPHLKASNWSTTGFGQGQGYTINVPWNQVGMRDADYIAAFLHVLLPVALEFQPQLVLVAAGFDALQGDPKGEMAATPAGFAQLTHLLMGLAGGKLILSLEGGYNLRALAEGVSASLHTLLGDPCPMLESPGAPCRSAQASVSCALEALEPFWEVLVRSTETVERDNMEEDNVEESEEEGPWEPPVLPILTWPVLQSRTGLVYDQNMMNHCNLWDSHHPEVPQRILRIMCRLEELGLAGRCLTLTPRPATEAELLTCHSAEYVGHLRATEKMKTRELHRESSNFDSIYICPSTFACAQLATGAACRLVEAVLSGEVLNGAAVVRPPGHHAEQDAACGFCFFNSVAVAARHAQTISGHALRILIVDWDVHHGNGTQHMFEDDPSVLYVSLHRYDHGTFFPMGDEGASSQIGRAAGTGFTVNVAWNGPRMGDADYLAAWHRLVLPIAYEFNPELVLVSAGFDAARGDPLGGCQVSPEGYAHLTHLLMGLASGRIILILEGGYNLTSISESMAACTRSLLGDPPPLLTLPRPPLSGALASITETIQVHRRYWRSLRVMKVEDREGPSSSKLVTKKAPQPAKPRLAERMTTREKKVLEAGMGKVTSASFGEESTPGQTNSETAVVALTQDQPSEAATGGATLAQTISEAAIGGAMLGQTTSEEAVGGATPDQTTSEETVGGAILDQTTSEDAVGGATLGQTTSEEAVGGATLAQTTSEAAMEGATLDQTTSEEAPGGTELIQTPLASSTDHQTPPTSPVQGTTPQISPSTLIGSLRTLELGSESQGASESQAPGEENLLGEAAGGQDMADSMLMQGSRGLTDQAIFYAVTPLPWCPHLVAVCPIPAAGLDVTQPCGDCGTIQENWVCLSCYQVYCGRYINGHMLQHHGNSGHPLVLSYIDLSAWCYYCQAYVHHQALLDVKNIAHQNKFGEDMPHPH

[2] = tested on: HCT 116; test: cells; conditions: Homo sapiens, HCT-116, 72 h, read-out: In Vitro Cellular IC50 HCT 116
Experimental: (§1) Cells were cultivated at 37° C., 5% CO2 in media containing 10% FBS and 2 mM glutamine Cells were routinely monitored with MycoAlert™ PLUS Mycoplasma Detection Kit (Lonza Walkersville, Inc.) to make sure they were mycoplasma free. Antibiotics (100 U/mL of penicillin and 100 μg/mL of streptomycin) were only added to the media used for compound dilution and cells in 96-well assay plates.
(§2) For a typical screening experiment, cells (100 μL/well) are inoculated into 96 well microtiter plates at plating densities ranging from 2,000 to 30,000 cells/well depending on the doubling time of individual cell lines and assay linearity. […] Suspension cells are treated with test compounds immediately after cell inoculation.
(§3) Test compounds are serially diluted (3-fold or 4-fold, 8-concentration) using the same media and added to the plates (15 to 25 μL/well). After 72 h of cultivation, the plates are assayed for cell cytotoxicity/viability by using the following two methods.
(§4) Cells in plates are fixed with cold trichloroacetic acid (TCA) (50% w/v in DI water, 1/4 volume of the medium in each well), and incubated at 4° C. for 1 h (adherent cells) or 2 h (suspension cells). The plates are washed 5 times (tap water×3, DI water×2) and air-dried. SRB solution 0.4% (w/v) in 1% acetic acid is added to each well (60 μL/well) and the plates are incubated at room temperature for 30 min, then washed with 1% acetic acid solution 4 times, and air-dried.
(§5) The plates are added CellTiter-Glo® Reagent (95 μL/well) and read the luminescence on a BioTek H4 reader per manufacture's protocol.
(§6) The raw data are processed using BioTek's Software Gen5 (v2.03.01) to generate inhibitory IC50 values.

[3] = tested on: MV-4-11; test: cells; conditions: Homo sapiens, MV4-11, 72 h, read-out: In Vitro Cellular IC50 MV-4-11
Experimental: as §1, §2, §3, §4, §5, §6

[4] = biological target: HDAC (HeLa nuclear extracts); test: HDAC enzyme assay, HeLa nuclear extracts; conditions: read-out: In Vitro Enzymatic IC50 HDAC (HeLa)
[5] = tested on: MCF7; test: Anti-proliferative assay (cellular IC50), MCF7; conditions: Homo sapiens, MCF7, 72 h, read-out: In Vitro Cellular IC50 MCF7
Experimental: as §1, §2, §3, §4, §5, §6

[6] = tested on: MOLT-4; test: Anti-proliferative assay (cellular IC50), MOLT-4; conditions: Homo sapiens, MOLT-4, 72 h, read-out: In Vitro Cellular IC50 MOLT-4
Experimental: as §1, §2, §3, §4, §5, §6

[7] = biological target: T2, PI3Kα (Homo sapiens, UniProt P42336); test: Kinase enzyme assay (ADP-Glo), PI3Kα; assay type: biochemical; conditions: read-out: In Vitro Enzymatic IC50 PI3Kα
T2 construct: purchased Invitrogen, or BPS Bioscience Inc., or SignalChem PV4788 / 40620 / P27-18H
T2 sequence (P42336 whole entry): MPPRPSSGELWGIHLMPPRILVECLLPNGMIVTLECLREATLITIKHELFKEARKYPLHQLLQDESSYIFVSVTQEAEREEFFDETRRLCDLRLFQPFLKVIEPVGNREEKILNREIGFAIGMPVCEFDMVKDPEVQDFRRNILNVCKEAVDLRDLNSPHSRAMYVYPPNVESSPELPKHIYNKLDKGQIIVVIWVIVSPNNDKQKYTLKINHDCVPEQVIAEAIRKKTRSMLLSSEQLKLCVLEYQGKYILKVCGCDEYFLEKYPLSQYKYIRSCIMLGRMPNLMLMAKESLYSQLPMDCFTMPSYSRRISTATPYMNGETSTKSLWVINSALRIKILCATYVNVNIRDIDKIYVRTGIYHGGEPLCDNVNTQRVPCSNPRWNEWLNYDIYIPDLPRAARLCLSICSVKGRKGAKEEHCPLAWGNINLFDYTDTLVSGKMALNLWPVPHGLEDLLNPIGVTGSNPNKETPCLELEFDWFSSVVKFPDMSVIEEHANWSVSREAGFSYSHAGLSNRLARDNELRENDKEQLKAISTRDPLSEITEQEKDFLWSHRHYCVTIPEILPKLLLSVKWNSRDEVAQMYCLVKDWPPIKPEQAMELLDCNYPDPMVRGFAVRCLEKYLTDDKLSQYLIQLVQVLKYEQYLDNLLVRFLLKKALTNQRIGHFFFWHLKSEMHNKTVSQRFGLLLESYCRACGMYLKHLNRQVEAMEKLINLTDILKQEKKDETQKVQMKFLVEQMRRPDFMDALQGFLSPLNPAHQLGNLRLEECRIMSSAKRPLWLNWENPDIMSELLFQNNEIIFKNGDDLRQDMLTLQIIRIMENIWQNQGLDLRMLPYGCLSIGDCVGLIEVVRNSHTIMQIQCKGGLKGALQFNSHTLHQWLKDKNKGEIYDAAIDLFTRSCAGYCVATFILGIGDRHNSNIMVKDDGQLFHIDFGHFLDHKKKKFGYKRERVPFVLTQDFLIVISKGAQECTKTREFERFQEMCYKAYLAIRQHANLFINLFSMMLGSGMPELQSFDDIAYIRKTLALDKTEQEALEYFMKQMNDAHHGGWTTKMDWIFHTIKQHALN
T2 sequence (P27986 whole entry partner): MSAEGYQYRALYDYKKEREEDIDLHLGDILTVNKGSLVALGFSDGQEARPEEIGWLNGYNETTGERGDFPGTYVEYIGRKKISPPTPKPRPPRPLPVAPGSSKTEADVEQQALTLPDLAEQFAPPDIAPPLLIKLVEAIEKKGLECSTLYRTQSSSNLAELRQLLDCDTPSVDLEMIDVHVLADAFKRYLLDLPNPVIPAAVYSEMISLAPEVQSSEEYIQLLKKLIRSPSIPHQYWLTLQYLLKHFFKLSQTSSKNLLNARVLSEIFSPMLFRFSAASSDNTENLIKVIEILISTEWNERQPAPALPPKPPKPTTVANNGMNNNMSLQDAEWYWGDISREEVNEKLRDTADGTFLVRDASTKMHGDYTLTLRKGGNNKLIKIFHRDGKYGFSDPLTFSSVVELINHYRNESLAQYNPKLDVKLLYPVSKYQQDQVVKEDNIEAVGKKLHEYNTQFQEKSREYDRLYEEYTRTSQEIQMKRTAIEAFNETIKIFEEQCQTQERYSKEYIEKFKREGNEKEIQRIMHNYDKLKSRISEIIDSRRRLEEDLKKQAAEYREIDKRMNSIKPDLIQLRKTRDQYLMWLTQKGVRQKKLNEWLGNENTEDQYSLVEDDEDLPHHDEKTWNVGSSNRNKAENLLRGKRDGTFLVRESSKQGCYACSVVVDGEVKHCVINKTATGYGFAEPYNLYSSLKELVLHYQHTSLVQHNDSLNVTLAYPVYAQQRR

[8] = tested on: COLO 205; test: cells; conditions: Homo sapiens, COLO 205, 72 h, read-out: In Vitro Cellular IC50 COLO 205
Experimental: as §1, §2, §3, §4, §5, §6

[9] = biological target: HDAC1 (Homo sapiens, UniProt Q13547); test: HDAC enzyme assay, recombinant HDAC1
Sequence of HDAC1 (Q13547 whole entry): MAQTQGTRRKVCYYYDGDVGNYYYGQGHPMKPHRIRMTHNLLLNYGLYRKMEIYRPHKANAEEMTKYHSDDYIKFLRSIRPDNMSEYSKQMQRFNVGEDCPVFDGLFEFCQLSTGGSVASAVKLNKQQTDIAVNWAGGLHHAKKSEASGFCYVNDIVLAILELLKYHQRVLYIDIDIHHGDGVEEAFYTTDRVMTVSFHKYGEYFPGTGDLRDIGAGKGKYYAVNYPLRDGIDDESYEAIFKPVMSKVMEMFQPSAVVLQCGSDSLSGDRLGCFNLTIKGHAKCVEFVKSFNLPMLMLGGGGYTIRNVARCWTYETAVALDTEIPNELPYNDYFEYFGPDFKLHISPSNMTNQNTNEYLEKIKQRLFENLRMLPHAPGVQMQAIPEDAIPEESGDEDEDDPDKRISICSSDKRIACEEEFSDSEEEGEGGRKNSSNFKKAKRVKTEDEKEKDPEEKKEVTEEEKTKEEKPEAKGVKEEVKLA

[10] = tested on: K-562; test: Anti-proliferative assay (cellular IC50), K-562; conditions: Homo sapiens, K562, 72 h, read-out: In Vitro Cellular IC50 K-562
[11] = tested on: PC-3; test: Anti-proliferative assay (cellular IC50), PC-3; conditions: Homo sapiens, PC-3, 72 h, read-out: In Vitro Cellular IC50 PC-3

| Compound | IC50 [1] [nM] | IC50 [4] [nM] | IC50 [6] [nM] | IC50 [8] [nM] | IC50 [9] [nM] | IC50 [10] [nM] | further results |
| --- | --- | --- | --- | --- | --- | --- | --- |
| NC(=O)c1cccc(-c2nc(N3CCOCC3)c3ncn(CCCCCCC(=O)NO)c3n2)c1 [compound 49, 3-(9-(7-(hydroxyamino)-7-oxoheptyl)-6-morpholino-9H-purin-2-yl)benzamide] | < 10 |  |  |  |  |  |  |
| CC(=O)Nc1cccc(-c2nc(N3CCOCC3)c3ncn(CCCCCCC(=O)NO)c3n2)c1 [compound 48, 7-(2-(3-acetamidophenyl)-6-morpholino-9H-purin-9-yl)-N-hydroxyheptanamide] | < 10 |  |  |  |  |  |  |
| Nc1ncc(-c2nc(N3CCOCC3)c3ncn(CCCCCCC(=O)NO)c3n2)cn1 [compound 41, 7-(2-(2-aminopyrimidin-5-yl)-6-morpholino-9H-purin-9-yl)-N-hydroxyheptanamide] | < 10 |  |  |  |  |  |  |
| O=C(CCCCCCn1cnc2c(N3CCC(O)CC3)nc(-c3cccc(CO)c3)nc21)NO [compound 105, N-hydroxy-7-(2-(3-(hydroxymethyl)phenyl)-6-(4-hydroxypiperidin-l-yl)-9H-purin-9-yl)heptanamide] |  | < 10 | < 500 |  |  |  | IC50 [2]: 500 to 2000 nM; IC50 [3]: < 500 nM; IC50 [5]: 500 to 2000 nM |
| CCn1c(CN(C)Cc2ccc(/C=C/C(=O)NO)cc2)nc2c(N3CCOCC3)nc(-c3ccc(C(N)=O)cc3)nc21 [compound 90, (E)-4-(9-ethyl-8-(((4-(3-(hydroxyamino)-3-oxoprop-1-en-1-yl)benzyl)(methyl)amino)methyl)-6-morpholino-9H-purin-2-yl)benzamide] |  | 100 to 1000 | 2000 to 10000 | 2000 to 10000 | 100 to 1000 | 2000 to 10000 | IC50 [7]: 100 to 1000 nM |
| O=C(CCCCCCn1cnc2c(N3CCOCC3)nc(-c3cn[nH]c3)nc21)NO [compound 51, N-hydroxy-7-(6-morpholino-2-(1H-pyrazol-4-yl)-9H-purin-9-yl)heptanamide] | < 10 |  |  |  |  |  |  |
| CCn1c(CN2CCC(C(=O)NO)CC2)nc2c(N3CCOCC3)nc(-c3cnc(N)nc3)nc21 [compound 88, 1-((2-(2-aminopyrimidin-5-yl)-9-ethyl-6-morpholino-9H-purin-8-yl)methyl)-N-hydroxypiperidine-4-carboxamide] |  |  | 2000 to 10000 | > 10000 | 1000 to 10000 | > 10000 |  |
| CC(C)n1cnc2c(N3CCOCC3)nc(-c3cccc(OCCCCCCC(=O)NO)c3)nc21 [compound 84, N-hydroxy-7-(3-(9-isopropyl-6-morpholino-9H-purin-2-yl)phenoxy)heptanamide] |  | 10 to 100 | 2000 to 10000 | > 10000 | 100 to 1000 | 2000 to 10000 |  |
| COc1ncc(-c2nc(N3CCOCC3)c3ncn(CCCCCCC(=O)NO)c3n2)cn1 [compound 55, N-hydroxy-7-(2-(2-methoxypyrimidin-5-yl)-6-morpholino-9H-purin-9-yl)heptanamide] | 10 to 100 |  |  |  |  |  |  |
| COc1ccc(-c2nc(N3CCOCC3)c3ncn(CCCCCCC(=O)NO)c3n2)cn1 [compound 52, N-hydroxy-7-(2-(6-methoxypyridin-3-yl)-6-morpholino-9H-purin-9-yl)heptanamide] | 10 to 100 |  |  |  |  |  |  |
| CC(C)n1c(N2CCC(C(=O)NO)CC2)nc2c(N3CCOCC3)nc(-c3cnc(N)nc3)nc21 [compound 86, 1-(2-(2-aminopyrimidin-5-yl)-9-isopropyl-6-morpholino-9H-purin-8-yl)-N-hydroxypiperidine-4-carboxamide] |  | 1000 to 10000 | 500 to 2000 | 2000 to 10000 | 1000 to 10000 | 2000 to 10000 | IC50 [7]: 10 to 100 nM |
| O=C(CCCCCCn1cnc2c(N3CCC(CO)CC3)nc(-c3cccc(CO)c3)nc21)NO [compound 103, N-hydroxy-7-(2-(3-(hydroxymethyl)phenyl)-6-(4-(hydroxymethyl)piperidin-1-yl)-9H-purin-9-yl)heptanamide] |  | < 10 | < 500 |  |  |  | IC50 [3]: < 500 nM; IC50 [5]: 500 to 2000 nM |
| CCn1c(CNCCCCCC(=O)NO)nc2c(N3CCOCC3)nc(-c3cnc(N)nc3)nc21 [compound 87, 6-(((2-(2-aminopyrimidin-5-yl)-9-ethyl-6-morpholino-9H-purin-8-yl)methyl)amino)-N-hydroxyhexanamide] | 100 to 1000 | 100 to 1000 | 2000 to 10000 | > 10000 | 100 to 1000 | > 10000 | IC50 [7]: 10 to 100 nM |
| CC(C)n1cnc2c(N3CCOCC3)nc(-c3cccc(NC(=O)CCCCCCC(=O)NO)c3)nc21 [compound 85, N^1-hydroxy-N^8-(3-(9-isopropyl-6-morpholino-9H-purin-2-yl)phenyl)octanediamide] |  | < 10 | < 500 | 500 to 2000 | 10 to 100 | 500 to 2000 | IC50 [3]: 500 to 2000 nM; IC50 [5]: 500 to 2000 nM; IC50 [11]: 2000 to 10000 nM |
| O=C(CCCCCCn1ccc2c(N3CCOCC3)nc(-c3cccc(O)c3)nc21)NO [compound 79, N-hydroxy-7-(2-(3-hydroxyphenyl)-4-morpholino-7H-pyrrolo[2,3-d]pyrimidin-7-yl)heptanamide] | < 10 |  |  |  |  |  |  |
| CCn1c(CN(C)Cc2ccc(/C=C/C(=O)NO)cc2)nc2c(N3CCOCC3)nc(-c3cccc(NC(C)=O)c3)nc21 [compound 92, (E)-3-(4-((((2-(3-acetamidophenyl)-9-ethyl-6-morpholino-9H-purin-8-yl)methyl)(methyl)amino)methyl)phenyl)-N-hydroxyacrylamide] | 100 to 1000 | 100 to 1000 | 2000 to 10000 | 2000 to 10000 | 100 to 1000 | 2000 to 10000 | IC50 [7]: 100 to 1000 nM |
| CCn1c(CN(C)Cc2ccc(/C=C/C(=O)NO)cc2)nc2c(N3CCOCC3)nc(-c3cccc(C(N)=O)c3)nc21 [compound 91, (E)-3-(9-ethyl-8-(((4-(3-(hydroxyamino)-3-oxoprop-1-en-1-yl)benzyl)(methyl)amino)methyl)-6-morpholino-9H-purin-2-yl)benzamide] |  | 100 to 1000 | 2000 to 10000 | 2000 to 10000 | 100 to 1000 | 2000 to 10000 | IC50 [7]: 100 to 1000 nM |
| CCN(CC)c1nc(-c2cccc(OCCCC(=O)NO)c2)c2ncn(C(C)C)c2n1 [compound 30, 4-(3-(2-(diethylamino)-9-isopropyl-9H-purin-6-yl)phenoxy)-N-hydroxybutanamide] |  | 100 to 1000 |  | 2000 to 10000 | 1000 to 10000 | 2000 to 10000 | IC50 [3]: < 500 nM; IC50 [5]: 2000 to 10000 nM; IC50 [11]: < 500 nM |
| CC(C)n1cnc2c(N3CCOCC3)nc(-c3cccc(OCCCC(=O)NO)c3)nc21 [compound 83, N-hydroxy-4-(3-(9-isopropyl-6-morpholino-9H-purin-2-yl)phenoxy)butanamide] |  | 100 to 1000 | 500 to 2000 | 2000 to 10000 | 100 to 1000 | 2000 to 10000 |  |
| Nc1ncc(-c2nc(N3CCOCC3)nc3c2ncn3CCCCCCC(=O)NO)cn1 [compound 3] | 10 to 100 |  |  |  |  |  |  |
| CC(C)n1cnc2c(-c3cccc(OCC(=O)NO)c3)nc(N3CCOCC3)nc21 [compound 24, N-hydroxy-2-(3-(9-isopropyl-2-morpholino-9H-purin-6-yl)phenoxy)acetamide] |  |  |  |  | 1000 to 10000 |  | IC50 [7]: 1000 to 10000 nM |
